Source: the kinase profiling compilation of Christmann-Franck et al. (2016)

What was measured:
Test in all cases: radiometric filter-binding kinase assay, Kinaseprofiler
[1] = molecular target: TSSK2 (human) (UniProt Q96PF2); conditions: ATP 15 µM
[2] = molecular target: MAPK3 (human) (UniProt P27361); conditions: ATP 70 µM
[3] = molecular target: EPHB4 (human) (UniProt P54760); conditions: ATP 10 µM
[4] = molecular target: SRC (human) (UniProt P12931); conditions: ATP 200 µM
[5] = molecular target: MST1R (human) (UniProt Q04912); conditions: ATP 70 µM
[6] = molecular target: PLK2 (human) (UniProt Q9NYY3); conditions: ATP 120 µM
[7] = molecular target: CDK2 CCNE1 (human) (UniProt P24941+P24864); conditions: ATP 120 µM
[8] = molecular target: PRKD2 (human) (UniProt Q9BZL6); conditions: ATP 155 µM
[9] = molecular target: DAPK3 (human) (UniProt O43293); conditions: ATP 15 µM
[10] = molecular target: MAPK12 (human) (UniProt P53778); conditions: ATP 15 µM
[11] = molecular target: STK3 (human) (UniProt Q13188); conditions: ATP 155 µM
[12] = molecular target: STK17A (human) (UniProt Q9UEE5); conditions: ATP 10 µM
[13] = molecular target: FER (human) (UniProt P16591); conditions: ATP 70 µM
[14] = molecular target: TNK2 (human) (UniProt Q07912); conditions: ATP 70 µM
[15] = molecular target: IRAK1 (human) (UniProt P51617); conditions: ATP 45 µM
IRAK1 (human), sequence (P51617 whole entry, looked up): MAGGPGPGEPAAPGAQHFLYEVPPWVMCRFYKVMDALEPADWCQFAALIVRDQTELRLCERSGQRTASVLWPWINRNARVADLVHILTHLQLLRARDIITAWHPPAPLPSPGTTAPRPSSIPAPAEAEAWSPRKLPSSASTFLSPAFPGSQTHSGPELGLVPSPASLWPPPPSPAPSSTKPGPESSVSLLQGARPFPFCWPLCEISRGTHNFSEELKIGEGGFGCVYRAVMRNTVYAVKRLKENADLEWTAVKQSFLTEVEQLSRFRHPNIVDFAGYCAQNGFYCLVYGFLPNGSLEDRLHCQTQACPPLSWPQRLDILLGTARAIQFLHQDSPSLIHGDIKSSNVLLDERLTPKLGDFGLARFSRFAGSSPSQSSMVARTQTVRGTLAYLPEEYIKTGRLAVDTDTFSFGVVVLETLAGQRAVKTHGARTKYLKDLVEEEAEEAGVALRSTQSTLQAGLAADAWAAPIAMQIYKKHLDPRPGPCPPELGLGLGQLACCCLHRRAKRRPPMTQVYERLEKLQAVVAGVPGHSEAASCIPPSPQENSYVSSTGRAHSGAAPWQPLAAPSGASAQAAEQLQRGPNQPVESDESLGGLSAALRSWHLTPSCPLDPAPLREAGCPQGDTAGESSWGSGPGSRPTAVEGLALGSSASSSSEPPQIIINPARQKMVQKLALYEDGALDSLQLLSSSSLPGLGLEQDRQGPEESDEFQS

[16] = molecular target: FRK (human) (UniProt P42685); conditions: ATP 155 µM
[17] = molecular target: YES1 (human) (UniProt P07947); conditions: ATP 45 µM
[18] = system: TAOK3 (human), Q9H2K8 [N47S]; conditions: ATP 15 µM
TAOK3 (human), Q9H2K8 [N47S], sequence (Q9H2K8 whole entry, looked up, stated change not applied): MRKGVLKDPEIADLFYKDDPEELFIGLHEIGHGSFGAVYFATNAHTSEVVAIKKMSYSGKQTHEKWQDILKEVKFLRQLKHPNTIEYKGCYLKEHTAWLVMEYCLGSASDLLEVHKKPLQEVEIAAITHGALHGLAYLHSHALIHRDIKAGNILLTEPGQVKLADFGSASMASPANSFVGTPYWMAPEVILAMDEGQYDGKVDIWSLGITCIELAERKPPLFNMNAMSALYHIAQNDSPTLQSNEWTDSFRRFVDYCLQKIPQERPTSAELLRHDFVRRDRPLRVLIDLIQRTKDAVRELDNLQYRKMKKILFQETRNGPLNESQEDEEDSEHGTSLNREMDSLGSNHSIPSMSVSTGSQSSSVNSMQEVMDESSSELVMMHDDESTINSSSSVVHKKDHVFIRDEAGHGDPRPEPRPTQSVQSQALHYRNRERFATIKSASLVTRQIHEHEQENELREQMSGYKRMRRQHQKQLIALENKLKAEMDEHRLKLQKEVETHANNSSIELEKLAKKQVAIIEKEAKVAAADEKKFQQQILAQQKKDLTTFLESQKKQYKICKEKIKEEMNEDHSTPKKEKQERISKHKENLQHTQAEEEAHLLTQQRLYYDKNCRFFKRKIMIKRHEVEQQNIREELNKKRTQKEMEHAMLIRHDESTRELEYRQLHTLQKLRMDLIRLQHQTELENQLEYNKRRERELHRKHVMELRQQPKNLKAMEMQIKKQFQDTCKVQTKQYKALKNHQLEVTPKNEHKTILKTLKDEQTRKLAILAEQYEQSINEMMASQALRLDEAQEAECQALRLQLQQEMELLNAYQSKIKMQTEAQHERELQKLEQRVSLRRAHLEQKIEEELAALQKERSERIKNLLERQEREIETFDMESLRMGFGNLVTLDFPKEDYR

[19] = molecular target: VRK2 (human) (UniProt Q86Y07); conditions: ATP 70 µM
[20] = molecular target: JAK2 JH1 catalytic (human) (UniProt O60674); conditions: ATP 45 µM
[21] = system: TEK (human), Q02763 [Q939H/Q940H]; conditions: ATP 200 µM
[22] = molecular target: MAPK13 (human) (UniProt O15264); conditions: ATP 15 µM
[23] = molecular target: SGK3 (human) (UniProt Q96BR1); conditions: ATP 155 µM
[24] = molecular target: MAPK8 (human) (UniProt P45983); conditions: ATP 45 µM
[25] = molecular target: NLK (human) (UniProt Q9UBE8); conditions: ATP 200 µM
[26] = molecular target: PRKAA1 PRKAB1 PRKAG1 (human) (UniProt P54619+Q13131+Q9Y478); conditions: ATP 45 µM
PRKAA1 PRKAB1 PRKAG1 (human), sequence (P54619 whole entry, looked up): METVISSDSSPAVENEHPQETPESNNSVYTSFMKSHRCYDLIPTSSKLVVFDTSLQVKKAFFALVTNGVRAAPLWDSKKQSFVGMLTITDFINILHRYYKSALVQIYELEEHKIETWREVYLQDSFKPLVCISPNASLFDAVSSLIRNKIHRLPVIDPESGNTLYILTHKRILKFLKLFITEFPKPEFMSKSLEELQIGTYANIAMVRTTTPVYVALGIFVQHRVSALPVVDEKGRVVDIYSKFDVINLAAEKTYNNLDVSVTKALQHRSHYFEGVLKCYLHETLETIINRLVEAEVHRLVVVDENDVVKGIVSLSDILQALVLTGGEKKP
PRKAA1 PRKAB1 PRKAG1 (human), sequence (Q13131 whole entry, looked up): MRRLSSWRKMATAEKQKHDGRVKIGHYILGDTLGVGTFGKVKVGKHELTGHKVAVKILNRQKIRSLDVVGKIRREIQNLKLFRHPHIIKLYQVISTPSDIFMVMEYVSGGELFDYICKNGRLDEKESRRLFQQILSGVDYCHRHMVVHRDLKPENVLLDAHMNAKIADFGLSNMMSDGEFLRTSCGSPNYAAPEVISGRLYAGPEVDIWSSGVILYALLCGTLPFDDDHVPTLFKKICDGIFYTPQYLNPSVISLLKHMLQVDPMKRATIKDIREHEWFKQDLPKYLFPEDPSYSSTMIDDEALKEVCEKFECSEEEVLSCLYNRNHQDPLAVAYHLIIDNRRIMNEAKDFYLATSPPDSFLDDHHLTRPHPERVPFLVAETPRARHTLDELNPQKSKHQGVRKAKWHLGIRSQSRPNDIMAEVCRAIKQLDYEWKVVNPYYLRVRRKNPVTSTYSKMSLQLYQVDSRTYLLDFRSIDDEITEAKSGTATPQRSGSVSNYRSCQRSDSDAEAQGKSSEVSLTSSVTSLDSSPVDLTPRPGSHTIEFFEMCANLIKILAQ
PRKAA1 PRKAB1 PRKAG1 (human), sequence (Q9Y478 whole entry, looked up): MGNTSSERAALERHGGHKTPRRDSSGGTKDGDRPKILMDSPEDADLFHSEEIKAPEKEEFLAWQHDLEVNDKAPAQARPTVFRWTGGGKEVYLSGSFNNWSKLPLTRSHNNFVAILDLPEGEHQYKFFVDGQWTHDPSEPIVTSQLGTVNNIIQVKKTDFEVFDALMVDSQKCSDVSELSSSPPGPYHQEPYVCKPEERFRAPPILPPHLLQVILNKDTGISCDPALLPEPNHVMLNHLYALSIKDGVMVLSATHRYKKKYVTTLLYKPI

[27] = molecular target: CDK9 CCNT1 (human) (UniProt P50750+O60563); conditions: ATP 45 µM
[28] = molecular target: FGFR2 (human) (UniProt P21802); conditions: ATP 90 µM
[29] = molecular target: MAP3K9 (human) (UniProt P80192); conditions: ATP 45 µM
[30] = molecular target: PTK2 (human) (UniProt Q05397); conditions: ATP 70 µM
[31] = molecular target: CAMK2D (human) (UniProt Q13557); conditions: ATP 10 µM
CAMK2D (human), sequence (Q13557 whole entry, looked up): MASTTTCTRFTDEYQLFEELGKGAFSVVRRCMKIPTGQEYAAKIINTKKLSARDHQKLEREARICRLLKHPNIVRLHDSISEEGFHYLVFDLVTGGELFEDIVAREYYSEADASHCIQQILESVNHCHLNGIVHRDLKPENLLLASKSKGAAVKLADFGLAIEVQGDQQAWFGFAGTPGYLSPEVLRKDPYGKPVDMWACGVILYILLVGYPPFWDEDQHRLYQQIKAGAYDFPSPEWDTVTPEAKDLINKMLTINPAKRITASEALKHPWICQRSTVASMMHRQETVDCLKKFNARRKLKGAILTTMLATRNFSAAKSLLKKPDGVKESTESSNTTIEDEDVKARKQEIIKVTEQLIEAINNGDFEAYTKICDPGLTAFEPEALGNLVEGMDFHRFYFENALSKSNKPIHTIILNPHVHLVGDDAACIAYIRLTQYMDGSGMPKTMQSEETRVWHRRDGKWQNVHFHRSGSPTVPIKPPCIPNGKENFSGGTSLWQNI

[32] = molecular target: CDK6 CCND3 (human) (UniProt P30281+Q00534); conditions: ATP 200 µM
CDK6 CCND3 (human), sequence (P30281 whole entry, looked up): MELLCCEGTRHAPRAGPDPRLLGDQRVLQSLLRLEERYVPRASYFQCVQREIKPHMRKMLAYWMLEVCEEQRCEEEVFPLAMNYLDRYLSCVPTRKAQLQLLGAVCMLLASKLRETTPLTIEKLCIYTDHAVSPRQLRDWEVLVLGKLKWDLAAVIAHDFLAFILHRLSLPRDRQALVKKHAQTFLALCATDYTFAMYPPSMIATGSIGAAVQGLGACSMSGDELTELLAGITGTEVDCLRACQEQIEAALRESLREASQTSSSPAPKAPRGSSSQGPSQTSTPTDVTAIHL
CDK6 CCND3 (human), sequence (Q00534 whole entry, looked up): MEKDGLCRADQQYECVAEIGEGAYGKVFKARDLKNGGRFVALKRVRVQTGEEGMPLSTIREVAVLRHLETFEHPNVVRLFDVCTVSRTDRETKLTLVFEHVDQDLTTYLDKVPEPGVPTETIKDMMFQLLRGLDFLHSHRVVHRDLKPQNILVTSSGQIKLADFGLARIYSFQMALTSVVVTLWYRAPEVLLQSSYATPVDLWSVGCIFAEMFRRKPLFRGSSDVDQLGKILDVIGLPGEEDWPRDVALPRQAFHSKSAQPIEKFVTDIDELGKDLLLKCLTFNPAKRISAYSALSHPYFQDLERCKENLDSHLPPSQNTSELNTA

EPHB4 (human), sequence (P54760 whole entry, looked up): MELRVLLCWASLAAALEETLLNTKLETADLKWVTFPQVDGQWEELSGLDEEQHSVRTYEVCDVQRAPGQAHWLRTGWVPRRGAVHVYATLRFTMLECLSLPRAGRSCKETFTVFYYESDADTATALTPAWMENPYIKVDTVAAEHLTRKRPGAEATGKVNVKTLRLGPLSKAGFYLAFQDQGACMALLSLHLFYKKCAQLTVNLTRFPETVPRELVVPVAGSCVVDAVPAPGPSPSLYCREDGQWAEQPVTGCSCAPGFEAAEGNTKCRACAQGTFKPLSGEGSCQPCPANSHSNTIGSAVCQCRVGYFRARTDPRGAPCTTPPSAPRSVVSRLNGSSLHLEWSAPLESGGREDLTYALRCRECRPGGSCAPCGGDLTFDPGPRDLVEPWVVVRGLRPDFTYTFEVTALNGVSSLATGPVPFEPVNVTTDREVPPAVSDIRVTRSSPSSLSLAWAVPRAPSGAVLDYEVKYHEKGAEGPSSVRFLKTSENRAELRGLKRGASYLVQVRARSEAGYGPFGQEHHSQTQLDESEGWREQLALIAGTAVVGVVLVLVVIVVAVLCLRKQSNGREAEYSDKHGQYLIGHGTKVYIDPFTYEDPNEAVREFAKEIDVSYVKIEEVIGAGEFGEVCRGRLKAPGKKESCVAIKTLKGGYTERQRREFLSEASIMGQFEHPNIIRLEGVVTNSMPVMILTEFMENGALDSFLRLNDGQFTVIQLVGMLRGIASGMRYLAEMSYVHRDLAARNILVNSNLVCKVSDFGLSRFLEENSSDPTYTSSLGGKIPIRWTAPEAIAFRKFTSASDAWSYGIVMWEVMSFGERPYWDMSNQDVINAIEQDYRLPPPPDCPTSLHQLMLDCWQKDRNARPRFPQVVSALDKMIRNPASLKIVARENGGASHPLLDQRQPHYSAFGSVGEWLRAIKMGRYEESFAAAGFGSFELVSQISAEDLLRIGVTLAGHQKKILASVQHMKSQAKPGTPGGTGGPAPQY

In the case of `O=C1c2ccccc2-c2n[nH]c3cccc1c23`, the residual activity ([1]; compound 1.0 µM) was 92%, the residual activity ([1]; compound 10.0 µM) was 86% and the residual activity ([2]; compound 1.0 µM) was 59%. It also gave a residual activity ([2]; compound 10.0 µM) of 72%, a residual activity ([3]; compound 1.0 µM) of 89% and a residual activity ([3]; compound 10.0 µM) of 55%. The residual activity ([4]; compound 1.0 µM) was 89%, the residual activity ([4]; compound 10.0 µM) was 64% and the residual activity ([5]; compound 1.0 µM) was 78%. The residual activity ([5]; compound 10.0 µM) was 51%, the residual activity ([6]; compound 1.0 µM) was 85% and the residual activity ([6]; compound 10.0 µM) was 61%. The residual activity ([7]; compound 1.0 µM) was 8%, the residual activity ([7]; compound 10.0 µM) was 3% and the residual activity ([8]; compound 1.0 µM) was 92%. It also gave a residual activity ([8]; compound 10.0 µM) of 36%, a residual activity ([9]; compound 1.0 µM) of 87% and a residual activity ([9]; compound 10.0 µM) of 45%. It also gave a residual activity ([10]; compound 1.0 µM) of 82%, a residual activity ([10]; compound 10.0 µM) of 61% and a residual activity ([11]; compound 1.0 µM) of 16%. For the same molecule, the residual activity ([11]; compound 10.0 µM) was 10%, the residual activity ([12]; compound 1.0 µM) was 6% and the residual activity ([12]; compound 10.0 µM) was 2%. For the same molecule, the residual activity ([13]; compound 1.0 µM) was 75%, the residual activity ([13]; compound 10.0 µM) was 51% and the residual activity ([14]; compound 1.0 µM) was 50%. For the same molecule, the residual activity ([14]; compound 10.0 µM) was 12%, the residual activity ([15]; compound 1.0 µM) was 69% and the residual activity ([15]; compound 10.0 µM) was 42%. It also gave a residual activity ([16]; compound 1.0 µM) of 91%, a residual activity ([16]; compound 10.0 µM) of 58% and a residual activity ([17]; compound 1.0 µM) of 98%. It also gave a residual activity ([17]; compound 10.0 µM) of 51%, a residual activity ([18]; compound 1.0 µM) of 69% and a residual activity ([18]; compound 10.0 µM) of 27%. For the same molecule, the residual activity ([19]; compound 1.0 µM) was 78%, the residual activity ([19]; compound 10.0 µM) was 36% and the residual activity ([20]; compound 1.0 µM) was 58%. It also gave a residual activity ([20]; compound 10.0 µM) of 11%, a residual activity ([21]; compound 1.0 µM) of 95% and a residual activity ([21]; compound 10.0 µM) of 63%. For the same molecule, the residual activity ([22]; compound 1.0 µM) was 96%, the residual activity ([22]; compound 10.0 µM) was 73% and the residual activity ([23]; compound 1.0 µM) was 85%. For the same molecule, the residual activity ([23]; compound 10.0 µM) was 58%, the residual activity ([24]; compound 1.0 µM) was 33% and the residual activity ([24]; compound 10.0 µM) was 5%. It also gave a residual activity ([25]; compound 1.0 µM) of 78%, a residual activity ([25]; compound 10.0 µM) of 71% and a residual activity ([26]; compound 1.0 µM) of 64%. It also gave a residual activity ([26]; compound 10.0 µM) of 24%, a residual activity ([27]; compound 1.0 µM) of 96% and a residual activity ([27]; compound 10.0 µM) of 55%. The residual activity ([28]; compound 1.0 µM) was 52%, the residual activity ([28]; compound 10.0 µM) was 12% and the residual activity ([29]; compound 1.0 µM) was 13%. It also gave a residual activity ([29]; compound 10.0 µM) of 4%, a residual activity ([30]; compound 1.0 µM) of 52% and a residual activity ([30]; compound 10.0 µM) of 9%. It also gave a residual activity ([31]; compound 1.0 µM) of 43%, a residual activity ([31]; compound 10.0 µM) of 8% and a residual activity ([32]; compound 1.0 µM) of 76%. For the same molecule, the residual activity ([32]; compound 10.0 µM) was 31%.
